Active and inactive are the calls of the source. The rule behind the calls is not given here.

In the data set the test system is CCRIS mutagenicity, Ames/micronucleus/aberration tests. Description: CCRIS mutagenicity studies.
The mark [1] stands for this setting: Test System: AMES SALMONELLA TYPHIMURIUM, Strain/Indicator: TA98, Metabolic Activation: NONE, Method: STANDARD PLATE.
The mark [2] stands for this setting: Test System: AMES SALMONELLA TYPHIMURIUM, Strain/Indicator: TA98, Metabolic Activation: RAT, LIVER, S-9, AROCLOR 1254, Method: STANDARD PLATE.
Where [3] appears, read: Test System: AMES SALMONELLA TYPHIMURIUM, Strain/Indicator: TA100, Metabolic Activation: NONE, Method: STANDARD PLATE.
Setting [4] is: Test System: AMES SALMONELLA TYPHIMURIUM, Strain/Indicator: TA100, Metabolic Activation: RAT, LIVER, S-9, AROCLOR 1254, Method: STANDARD PLATE.
[5] abbreviates: Test System: AMES SALMONELLA TYPHIMURIUM, Strain/Indicator: TA1537, Metabolic Activation: NONE, Method: STANDARD PLATE.
Where [6] appears, read: Test System: AMES SALMONELLA TYPHIMURIUM, Strain/Indicator: TA1537, Metabolic Activation: RAT, LIVER, S-9, AROCLOR 1254, Method: STANDARD PLATE.
Where [7] appears, read: Test System: AMES SALMONELLA TYPHIMURIUM, Strain/Indicator: TA1535, Metabolic Activation: NONE, Method: STANDARD PLATE.
Setting [8] is: Test System: AMES SALMONELLA TYPHIMURIUM, Strain/Indicator: TA1535, Metabolic Activation: RAT, LIVER, S-9, AROCLOR 1254, Method: STANDARD PLATE.
The mark [9] stands for this setting: Test System: AMES SALMONELLA TYPHIMURIUM, Strain/Indicator: TA1538, Metabolic Activation: NONE, Method: STANDARD PLATE.
The mark [10] stands for this setting: Test System: AMES SALMONELLA TYPHIMURIUM, Strain/Indicator: TA1538, Metabolic Activation: RAT, LIVER, S-9, AROCLOR 1254, Method: STANDARD PLATE.

For the molecule `C1CCC2OCCOCCOC3CCCCC3OCCOCCOC2C1` (stereo not drawn), the mutagenic call by setting is: under setting [1], “inactive; negative”; under setting [2], “inactive; negative”; under setting [3], “inactive; negative”; under setting [4], “inactive; negative”; (Test System: AMES SALMONELLA TYPHIMURIUM, Strain/Indicator: TA1530, Metabolic Activation: NONE, Method: STANDARD PLATE) “inactive; negative”; (Test System: AMES SALMONELLA TYPHIMURIUM, Strain/Indicator: TA1530, Metabolic Activation: RAT, LIVER, S-9, AROCLOR 1254, Method: STANDARD PLATE) “inactive; negative”. Moreover, the mutagenic call was “inactive; negative” under setting [5] and “inactive; negative” under setting [6].

As for `CC(=O)N(O)c1ccc(C)cc1`, the mutagenic call is, setting by setting: under setting [1], “inactive; negative”; under setting [2], “inactive; negative”; under setting [3], “inactive; negative”; under setting [4], “inactive; negative”.

As to `O=C(Nc1ccc2c(O)c(N=Nc3ccc(N=Nc4ccc(S(=O)(=O)O)cc4)cc3)c(S(=O)(=O)O)cc2c1)c1ccccc1`, the mutagenic call by setting is: under setting [1], “inactive; negative”; under setting [2], “inactive; negative”; under setting [3], “inactive; negative”; under setting [4], “inactive; negative”; under setting [7], “inactive; negative”; under setting [8], “inactive; negative”. The mutagenic call reads like this: under setting [5], “inactive; negative”; under setting [6], “inactive; negative”; under setting [9], “inactive; negative”; under setting [10], “inactive; negative”.

Take `CCCCC(CC)COP(OCC(CC)CCCC)OCC(CC)CCCC` (stereo not drawn): the mutagenic call runs as follows: (Test System: AMES SALMONELLA TYPHIMURIUM, Strain/Indicator: TA98, Metabolic Activation: HAMSTER, LIVER, S-9, AROCLOR 1254 (10%), Method: PREINCUBATION) “inactive; negative”; (Test System: AMES SALMONELLA TYPHIMURIUM, Strain/Indicator: TA98, Metabolic Activation: NONE, Method: PREINCUBATION) “inactive; negative”; (Test System: AMES SALMONELLA TYPHIMURIUM, Strain/Indicator: TA98, Metabolic Activation: RAT, LIVER, S-9, AROCLOR 1254 (10%), Method: PREINCUBATION) “inactive; negative”; (Test System: AMES SALMONELLA TYPHIMURIUM, Strain/Indicator: TA100, Metabolic Activation: HAMSTER, LIVER, S-9, AROCLOR 1254 (10%), Method: PREINCUBATION) “inactive; negative”; (Test System: AMES SALMONELLA TYPHIMURIUM, Strain/Indicator: TA100, Metabolic Activation: NONE, Method: PREINCUBATION) “inactive; negative”; (Test System: AMES SALMONELLA TYPHIMURIUM, Strain/Indicator: TA100, Metabolic Activation: RAT, LIVER, S-9, AROCLOR 1254 (10%), Method: PREINCUBATION) “inactive; negative”. The mutagenic call was “inactive; negative” (Test System: AMES SALMONELLA TYPHIMURIUM, Strain/Indicator: TA1535, Metabolic Activation: HAMSTER, LIVER, S-9, AROCLOR 1254 (10%), Method: PREINCUBATION); “inactive; negative” (Test System: AMES SALMONELLA TYPHIMURIUM, Strain/Indicator: TA1535, Metabolic Activation: NONE, Method: PREINCUBATION); “inactive; negative” (Test System: AMES SALMONELLA TYPHIMURIUM, Strain/Indicator: TA1535, Metabolic Activation: RAT, LIVER, S-9, AROCLOR 1254 (10%), Method: PREINCUBATION); “inactive; negative” (Test System: AMES SALMONELLA TYPHIMURIUM, Strain/Indicator: TA1537, Metabolic Activation: HAMSTER, LIVER, S-9, AROCLOR 1254 (10%), Method: PREINCUBATION); “inactive; negative” (Test System: AMES SALMONELLA TYPHIMURIUM, Strain/Indicator: TA1537, Metabolic Activation: NONE, Method: PREINCUBATION); “inactive; negative” (Test System: AMES SALMONELLA TYPHIMURIUM, Strain/Indicator: TA1537, Metabolic Activation: RAT, LIVER, S-9, AROCLOR 1254 (10%), Method: PREINCUBATION).

Regarding `O[C@@H]1[C@H]2O[C@H]2c2c(ccc3nc4ccc5ccccc5c4cc23)[C@H]1O`, the mutagenic call runs as follows: under setting [1], “active; positive”; (Test System: AMES SALMONELLA TYPHIMURIUM, Strain/Indicator: TA100, Metabolic Activation: GUINEA PIG, LIVER, S-9, 3-METHYLCHOLANTHRENE, Method: STANDARD PLATE) “active; positive”; under setting [3], “active; positive”; (Test System: CHINESE HAMSTER V-79, Strain/Indicator: V-79/6-THIOGUANINE, Metabolic Activation: NONE) “active; positive”.

In the case of `O=C1N=NC(=O)C2C=CC=CC12` (stereo not drawn), the mutagenic call reads like this: (Test System: AMES SALMONELLA TYPHIMURIUM, Strain/Indicator: TA98, Metabolic Activation: HAMSTER, LIVER, S-9, AROCLOR 1254, Method: STANDARD PLATE) “inactive; negative”; under setting [1], “inactive; negative”; under setting [2], “inactive; negative”; (Test System: AMES SALMONELLA TYPHIMURIUM, Strain/Indicator: TA100, Metabolic Activation: HAMSTER, LIVER, S-9, AROCLOR 1254, Method: STANDARD PLATE) “inactive; negative”; under setting [3], “inactive; negative”; under setting [4], “inactive; negative”. Further, the mutagenic call by setting is: (Test System: AMES SALMONELLA TYPHIMURIUM, Strain/Indicator: TA1535, Metabolic Activation: HAMSTER, LIVER, S-9, AROCLOR 1254, Method: STANDARD PLATE) “inactive; negative”; under setting [7], “inactive; negative”; under setting [8], “inactive; negative”; (Test System: AMES SALMONELLA TYPHIMURIUM, Strain/Indicator: TA1537, Metabolic Activation: HAMSTER, LIVER, S-9, AROCLOR 1254, Method: STANDARD PLATE) “inactive; negative”; under setting [5], “inactive; negative”; under setting [6], “inactive; negative”. Moreover, the mutagenic call (Test System: AMES SALMONELLA TYPHIMURIUM, Strain/Indicator: TA1538, Metabolic Activation: HAMSTER, LIVER, S-9, AROCLOR 1254, Method: STANDARD PLATE) was “inactive; negative”; the mutagenic call under setting [9] is “inactive; negative”; the mutagenic call under setting [10] is “inactive; negative”; the mutagenic call (Test System: Mouse lymphoma, Strain/Indicator: L5178Y (tk+/tk-), Metabolic Activation: None, Method: Suspension/plate) is “inactive; negative”; the mutagenic call (Test System: Mouse lymphoma, Strain/Indicator: L5178Y (tk+/tk-), Metabolic Activation: Rat, liver, S-9, Aroclor 1254, Method: Suspension/plate) is “active; positive”.

For `c1ccc2c(c1)-c1c(c3ccccc3c3ccccc13)C1NC21` (stereo not drawn), the mutagenic call (Test System: AMES SALMONELLA TYPHIMURIUM, Strain/Indicator: TA98, Metabolic Activation: NONE, Method: PREINCUBATION (KCL-CONTAINING MEDIUM)) is “active; positive”; the mutagenic call (Test System: AMES SALMONELLA TYPHIMURIUM, Strain/Indicator: TA98, Metabolic Activation: NONE, Method: PREINCUBATION (KCL-FREE MEDIUM)) is “active; positive”; the mutagenic call (Test System: AMES SALMONELLA TYPHIMURIUM, Strain/Indicator: TA100, Metabolic Activation: NONE, Method: PREINCUBATION (KCL-CONTAINING OR KCL-FREE MEDIA)) is “active; positive”.

Values taken from PubChem BioAssay AID1259407 (Chemical Carcinogenesis Research Information System (CCRIS), 2018).
